Series [1] in a line: DIM concentration in patients' blood plasma. Conditions: dose 100 mg. Format: in vivo, human. An excerpt:
Study of DIM Concentration in Patients' Blood Plasma These differences are probably attributed to effective therapeutic DIM concentrations reached in the peripheral blood and target tissues in response to DIM-HB treatment.

Details of series [2]: species or system rats. The settings on record: rat, in vivo, 200 mg/kg. The protocol:
Concentration of 3,3′-diindolylmethane (μg/ml) in the Blood Plasma of Experimental Animals Given 200.0 mg/kg of 3,3′-diindolylmethane Substance Intrastomachically.
The results of measurements of 3,3′-diindolylmethane substance concentration in the blood plasma of rats given the substance intrastomachically are shown in Table 1.
3,3′-diindolylmethane Concentration (μg/ml) in the Blood Plasma of Experimental Animals Given […] of High-Bioavailability 3,3′-diindolylmethane Intrastomachically.
The results of measurements of 3,3′-diindolylmethane substance concentration in the blood plasma of rats given the substance intrastomachically are shown in Table 2.

Series [3] in a line: Clinical efficiency of DIM-HB and crystalline DIM in equal doses. In kind it is in vivo, human. An excerpt: All classical studies compared the efficiencies of DIM-HB and crystalline DIM in equal doses.
These differences are probably attributed to effective therapeutic DIM concentrations reached in the peripheral blood and target tissues in response to DIM-HB treatment.

SMILES strings stand for the structures.

As to `c1ccc2c(Cc3c[nH]c4ccccc34)c[nH]c2c1` [Crystalline DIM, 3,3′-diindolylmethane], the “DIM concentration in the plasma” value in series [1] was 20 to 30 ng/mL. Further, in series [2], the “maximum concentration in the system blood flow” value lay within 0.13 to 0.17 µg/mL, the “minimum concentration 12 hours after administration” value was “less than 0.03 μg/ml” and the “time at which the maximum concentration was observed” value is reported as “about 1 hour”. Also, the “dynamics in all study groups of patients in response to treatment” value in series [3] was “no dynamics at all”.

Source of the values: patent publication US8697123B2, “Medication on the basis of 3,3′-diindolylmethane (DIM) with high-bioavailability and its use in treatment of human hyperplastic and inflammatory diseases” (Zakrytoye akstionernoye obschestvo “VELES FARMA”, priority 2010, dated 2014).
